Measured values as given in patent US7713957B2, “Pharmaceutical composition containing gabapentin or pregabalin and N-type calcium channel antagonist” (Ajinomoto Co., Inc., priority 2002, dated 2010).
Like-named read-outs stand apart in the source and are kept apart here.

Experiments:
N-type calcium channel = target: T1, N-type calcium channel (Homo sapiens, UniProt Q00975); experiment: Antagonistic activity on N-type calcium channel (fluorescence dye method, IMR-32 cells); format: cell-based; conditions: 10 μM test compound, 60 mM KCl stimulation, 1 μM Nifedipine, read-out: Antagonistic activity on N-type calcium channels at 10 μM Inhibition rate (%)
T1 construct: host or cells: IMR-32 human neuroblastoma cells, differentiated with dibutyl cAMP and 5-bromodeoxyuridine for 10 to 14 days
T1 sequence (Q00975 whole entry): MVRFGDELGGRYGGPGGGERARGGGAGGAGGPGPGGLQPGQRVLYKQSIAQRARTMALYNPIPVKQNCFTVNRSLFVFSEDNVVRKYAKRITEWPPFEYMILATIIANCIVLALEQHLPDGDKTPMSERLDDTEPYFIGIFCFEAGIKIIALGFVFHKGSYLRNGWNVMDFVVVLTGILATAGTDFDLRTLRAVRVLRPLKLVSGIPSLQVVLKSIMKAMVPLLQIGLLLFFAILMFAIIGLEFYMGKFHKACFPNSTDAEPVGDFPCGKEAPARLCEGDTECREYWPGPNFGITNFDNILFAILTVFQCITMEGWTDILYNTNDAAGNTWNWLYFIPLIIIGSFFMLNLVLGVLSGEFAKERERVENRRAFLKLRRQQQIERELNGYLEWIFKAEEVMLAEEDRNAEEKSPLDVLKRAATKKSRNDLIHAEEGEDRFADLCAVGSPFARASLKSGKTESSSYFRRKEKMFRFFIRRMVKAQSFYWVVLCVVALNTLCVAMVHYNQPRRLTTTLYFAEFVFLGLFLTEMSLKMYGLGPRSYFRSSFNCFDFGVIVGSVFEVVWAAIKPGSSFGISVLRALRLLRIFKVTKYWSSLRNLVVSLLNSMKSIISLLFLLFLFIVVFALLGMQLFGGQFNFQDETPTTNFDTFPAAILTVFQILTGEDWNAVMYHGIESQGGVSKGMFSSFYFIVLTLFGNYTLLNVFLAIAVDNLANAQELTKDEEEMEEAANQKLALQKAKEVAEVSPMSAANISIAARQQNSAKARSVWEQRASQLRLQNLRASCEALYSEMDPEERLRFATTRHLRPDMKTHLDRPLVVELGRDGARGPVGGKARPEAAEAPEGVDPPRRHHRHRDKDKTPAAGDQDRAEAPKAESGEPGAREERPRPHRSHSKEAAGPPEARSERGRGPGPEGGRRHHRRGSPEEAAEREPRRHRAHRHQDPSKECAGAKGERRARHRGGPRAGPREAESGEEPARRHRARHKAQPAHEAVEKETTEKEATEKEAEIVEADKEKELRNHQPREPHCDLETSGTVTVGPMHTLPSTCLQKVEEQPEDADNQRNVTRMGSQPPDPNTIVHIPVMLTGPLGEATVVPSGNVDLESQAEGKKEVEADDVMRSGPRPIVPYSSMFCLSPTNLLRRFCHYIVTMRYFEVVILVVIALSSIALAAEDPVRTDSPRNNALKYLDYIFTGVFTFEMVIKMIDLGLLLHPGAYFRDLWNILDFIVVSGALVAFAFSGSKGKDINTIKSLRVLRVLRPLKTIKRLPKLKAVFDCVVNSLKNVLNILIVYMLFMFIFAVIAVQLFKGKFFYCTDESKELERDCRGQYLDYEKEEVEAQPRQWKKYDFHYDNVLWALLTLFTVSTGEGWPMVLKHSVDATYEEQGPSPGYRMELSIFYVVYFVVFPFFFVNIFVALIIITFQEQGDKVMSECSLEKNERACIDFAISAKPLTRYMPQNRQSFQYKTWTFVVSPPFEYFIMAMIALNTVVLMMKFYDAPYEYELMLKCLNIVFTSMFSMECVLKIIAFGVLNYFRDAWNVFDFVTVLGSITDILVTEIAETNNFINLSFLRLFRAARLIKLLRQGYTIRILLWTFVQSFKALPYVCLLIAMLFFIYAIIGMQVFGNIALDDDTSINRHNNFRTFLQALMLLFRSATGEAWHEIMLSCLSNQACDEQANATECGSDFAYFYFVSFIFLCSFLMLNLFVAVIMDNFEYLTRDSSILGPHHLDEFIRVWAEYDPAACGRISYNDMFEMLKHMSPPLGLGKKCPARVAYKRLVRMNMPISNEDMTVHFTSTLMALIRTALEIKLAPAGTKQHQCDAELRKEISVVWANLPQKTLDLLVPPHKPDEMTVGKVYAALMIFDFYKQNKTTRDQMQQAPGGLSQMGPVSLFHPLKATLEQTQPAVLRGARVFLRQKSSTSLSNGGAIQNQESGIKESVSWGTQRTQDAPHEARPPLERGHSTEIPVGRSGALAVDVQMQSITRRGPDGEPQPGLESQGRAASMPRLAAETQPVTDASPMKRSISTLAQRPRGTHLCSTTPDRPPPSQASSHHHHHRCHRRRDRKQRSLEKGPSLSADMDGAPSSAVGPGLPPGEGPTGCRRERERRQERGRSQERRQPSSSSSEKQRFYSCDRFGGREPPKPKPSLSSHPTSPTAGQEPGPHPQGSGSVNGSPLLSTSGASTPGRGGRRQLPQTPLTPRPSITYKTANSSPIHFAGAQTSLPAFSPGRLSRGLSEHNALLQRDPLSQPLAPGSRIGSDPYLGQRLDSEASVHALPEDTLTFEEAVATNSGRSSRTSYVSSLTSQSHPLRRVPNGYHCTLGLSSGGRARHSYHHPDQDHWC
T1 sequence (Q02641 whole entry partner): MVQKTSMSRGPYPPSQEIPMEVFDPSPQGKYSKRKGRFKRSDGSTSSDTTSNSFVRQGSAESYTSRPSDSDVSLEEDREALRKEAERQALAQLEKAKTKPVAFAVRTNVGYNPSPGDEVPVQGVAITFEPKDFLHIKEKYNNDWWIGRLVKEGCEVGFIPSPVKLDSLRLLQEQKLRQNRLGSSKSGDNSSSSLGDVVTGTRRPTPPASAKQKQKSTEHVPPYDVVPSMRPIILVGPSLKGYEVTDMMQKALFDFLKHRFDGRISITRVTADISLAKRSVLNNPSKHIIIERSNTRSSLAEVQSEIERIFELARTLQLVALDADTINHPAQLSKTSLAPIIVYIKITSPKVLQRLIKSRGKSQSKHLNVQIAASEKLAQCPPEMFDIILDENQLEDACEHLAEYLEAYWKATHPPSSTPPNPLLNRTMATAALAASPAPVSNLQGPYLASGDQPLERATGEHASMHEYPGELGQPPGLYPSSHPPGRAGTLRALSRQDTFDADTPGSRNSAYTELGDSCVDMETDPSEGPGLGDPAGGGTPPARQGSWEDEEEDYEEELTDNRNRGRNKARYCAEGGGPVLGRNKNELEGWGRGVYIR
T1 sequence (P54289 25-956 partner limits assumed): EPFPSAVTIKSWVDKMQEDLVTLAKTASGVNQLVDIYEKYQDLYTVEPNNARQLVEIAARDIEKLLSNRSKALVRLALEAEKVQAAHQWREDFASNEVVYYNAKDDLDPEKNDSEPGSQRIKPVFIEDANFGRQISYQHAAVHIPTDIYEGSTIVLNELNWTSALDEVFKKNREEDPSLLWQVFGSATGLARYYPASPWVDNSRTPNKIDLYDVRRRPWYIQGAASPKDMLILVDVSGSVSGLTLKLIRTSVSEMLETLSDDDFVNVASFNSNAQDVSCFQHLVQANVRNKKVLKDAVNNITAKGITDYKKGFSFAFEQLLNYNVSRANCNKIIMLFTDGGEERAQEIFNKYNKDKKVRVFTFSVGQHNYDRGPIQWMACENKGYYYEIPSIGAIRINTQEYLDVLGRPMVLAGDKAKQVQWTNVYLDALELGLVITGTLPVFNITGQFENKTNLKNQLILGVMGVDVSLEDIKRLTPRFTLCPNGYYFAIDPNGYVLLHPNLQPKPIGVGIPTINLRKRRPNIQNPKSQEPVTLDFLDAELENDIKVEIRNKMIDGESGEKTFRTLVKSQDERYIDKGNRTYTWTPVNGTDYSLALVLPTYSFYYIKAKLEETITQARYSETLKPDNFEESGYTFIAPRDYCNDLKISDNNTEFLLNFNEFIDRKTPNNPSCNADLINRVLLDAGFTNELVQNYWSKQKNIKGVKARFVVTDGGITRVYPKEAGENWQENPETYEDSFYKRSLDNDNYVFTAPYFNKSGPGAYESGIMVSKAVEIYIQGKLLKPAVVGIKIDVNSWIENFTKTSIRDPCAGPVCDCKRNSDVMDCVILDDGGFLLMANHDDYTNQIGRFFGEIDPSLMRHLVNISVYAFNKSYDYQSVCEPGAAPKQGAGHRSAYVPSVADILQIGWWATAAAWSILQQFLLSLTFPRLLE
T1 sequence (P54289 957-1103 partner limits assumed): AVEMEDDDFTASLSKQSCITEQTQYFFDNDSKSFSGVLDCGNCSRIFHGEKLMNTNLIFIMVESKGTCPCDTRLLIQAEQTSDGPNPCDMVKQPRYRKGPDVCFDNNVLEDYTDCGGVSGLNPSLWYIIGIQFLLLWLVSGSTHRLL
Description: Antagonistic Activity on N-Type Calcium Channel (Fluorescence Dye Method)
Human neuroblastoma cells IMR-32 were obtained from ATCC (American Type Culture Collection). The medium used was a Phenol Red-free Eagle minimum essential medium containing earle's salts supplement (GIBCO) supplemented with 2 mM of L-glutamine (GIBCO), 1 mM of sodium pyruvate (pH 6.5) (GIBCO), antibiotic/antimycotic mixture (GIBCO) and 10% fetal calf serum (Cell Culture Technologies). 3 ml of 1×10^5 cells/ml IMR-32 cells were spread on the glass bottom of a dish (Iwaki Glsss Co., Ltd.) having a diameter of 35 mm which had been treated with poly-L-lysin (SIGMA) and collagen (COLLAGEN VITROGEN 100; Collagen Co.). After the culture for 1 day, 1 mM (final concentration) of dibutyl cAMP and 2.5 μM (final concentration) of 5-bromodeoxyuridine (SIGMA) were added. After the culture for additional 10 to 14 days, the cells were subjected to the activity determination.
The medium for IMR-32 cells thus prepared was replaced with 1 ml of Phenol Red-free and earle's salts supplemented Eagle minimum essential medium (GIBCO) containing 2.5 μM fura-2/AM (Dojin Kagaku, Co.), and the incubation was conducted at 37° C. for 30 minutes. […] Antagonistic activity on N-type calcium channel was determined and analyzed using a fluorescence microscope (Nikon Corporation) and an image analysis device ARGUS 50 (Hamamatsu Photonics). […]

Sprague-Dawley rats = experiment: Formalin test in rat pain models (flinching action, second phase); format: in vivo
Description: Analgesic activities were determined in the formalin test. Four test groups [a control group (given a saline solution) and groups given 30, 100 and 300 mg/kg of gabapentin] each composed of 6 to 7 male Sprague-Dawley rats (SD rats, 9 weeks old) were used for the experiment. Gabapentin was dissolved in a saline solution.
4 ml/kg of a saline solution or gabapentin was orally administered to the rats. Three hours after, the rats were tranquilized with halothane, and 2.5% formalin solution (100 μl) was injected subcutaneously to dorsal surface of the left hindpaw. Immediately thereafter, the rats were awaken from the anesthesia. […] The number of times of retracting action, i.e., flinching action of the hindpaw in which formalin had been injected, was counted for 1 minute at an interval of one minute until 5 minutes after the formalin injection, and for 1 minute at an interval of 5 minutes from 10 to 60 minutes after the injection. […] The total number of times of the flinching action observed 10 to 60 minutes after the formalin injection (the second phase) was taken as the index of the pain action.
Analgesic activities were determined in the formalin test. Four test groups [a control group, a group given the compound A (the compound of Referential Example 11: 3 mg/kg), a group given 100 mg/kg of gabapentin and a group given a combination of 3 mg/kg of the compound A and 100 mg/kg of gabapentin] each composed of 6 to 7 male Sprague-Dawley rats (SD rats, 9 weeks old) were used for the experiment. The administration volume to each group was as follows. In the control group, 5 ml/kg of 0.5% tragacanth solution and 4 ml/kg of a saline solution were given orally to the rats. In the group given the compound A, 5 ml/kg of the compound A suspended in 0.5% tragacanth solution and 4 ml/kg of a saline solution were given orally to them. In the group given gabapentin, 5 ml/kg of 0.5% tragacanth solution and 4 ml/kg of gabapentin dissolved in a saline solution were given orally to them. In the group given a combination of the compound A and gabapentin, 5 ml/kg of the compound A suspended in 0.5% tragacanth solution and 4 ml/kg of gabapentin dissolved in a saline solution were given orally to them.
Analgesic activities were determined in the formalin test. Four test groups [a control group, a group given the compound B (the compound of Referential Example 71: 3 mg/kg), a group given 100 mg/kg of gabapentin and a group given a combination of 3 mg/kg of the compound B and 100 mg/kg of gabapentin] each composed of 6 male Sprague-Dawley rats (SD rats, 9 weeks old) were used for the experiment. The administration volume to each group was as follows. In the control group, 3 ml/kg of polyethylene glycol 400 (PEG) and 4 ml/kg of a saline solution were given orally to the rats. In the group given the compound B, 3 ml/kg of the compound B dissolved in PEG and 4 ml/kg of a saline solution were given orally to them. In the group given gabapentin, 3 ml/kg of PEG and 4 ml/kg of gabapentin dissolved in a saline solution were given orally to them. In the group given the combination of compound B and gabapentin, 3 ml/kg of the compound B dissolved in PEG and 4 ml/kg of gabapentin dissolved in a saline solution were given orally to them.
Analgesic activities were determined in the formalin test. Four test groups [a control group (given a saline solution) and groups given 10, 30 and 100 mg/kg of pregabalin] each composed of 6 male Sprague-Dawley rats (SD rats, 9 weeks old) were used for the experiment. Pregabalin was dissolved in a saline solution. 4 ml/kg of a saline solution or pregabalin was orally administered to the rats.
Analgesic activities were determined in the formalin test.

[1] = patients with post-herpetic neuralgia (Acta Neurol. Scand. 101:359-371, 2000); cited from earlier work
[2] = clinical use; cited from earlier work
[3] = cited from earlier work

SMILES: CC(C)(C)CC(=O)NCCCNC(=O)C=C1c2ccccc2C=Cc2ccccc21 [Example 41]
- inhibition at 10 µM (N-type calcium channel): 76%

SMILES: CC(C)(C)C(=O)NCCC(=O)N1CCC(=C2c3ccccc3C=Cc3ccccc32)CC1 [Referential Example 11, N-{3-[4-(5H-dibenzo[a, d] [7]annulen-5-ylidene)-1-piperidinyl]-3-oxopropyl}-2,2-dimethylpropanamide]
- inhibiting ratio of flinches (Sprague-Dawley rats; Example 2, 3 mg/kg oral, suspended in 0.5% tragacanth): 38%

SMILES: CC(C)(C)C(=O)N[C@H](CO)CCC(=O)N1CCC(=C2c3ccccc3C=Cc3ccccc32)CC1 [Referential Example 71, (S)-N-[4-[4-(5H-dibenzo[a,d] [7]annulen-5-ylidene)-1-piperidinyl]-1-(hydroxylmethyl)-4-oxobutyl]-2.2-dimethylpropanamide]
- inhibiting ratio of flinches (Sprague-Dawley rats; Example 3, 3 mg/kg oral, dissolved in PEG): 16%
- inhibiting ratio of flinches (Sprague-Dawley rats; Example 5, 3 mg/kg oral, dissolved in PEG): 7%

SMILES: NCC1(CC(=O)O)CCCCC1 [gabapentin, 1-(aminomethyl)-cyclohexaneacetic acid]
- treatment effectiveness [1]: approximately 60%
- inhibiting ratio of flinches (Sprague-Dawley rats; Example 1, 30 mg/kg oral, vs control group): 11%
- inhibiting ratio of flinches (Sprague-Dawley rats; Example 1, 100 mg/kg oral, vs control group): 42%
- inhibiting ratio of flinches (Sprague-Dawley rats; Example 1, 300 mg/kg oral, vs control group): 47%
- inhibiting ratio of flinches (Sprague-Dawley rats; Example 2, 100 mg/kg oral): 47%
- inhibiting ratio of flinches (Sprague-Dawley rats; Example 3, 100 mg/kg oral): 59%
- side-effects [2]: somnolence and dizziness
- motor function of the body ([3]; whole body administration of 300 mg/kg or more): significant decrease in motor function of the body

SMILES: CC(C)C[C@H](CN)CC(=O)O [pregabalin, (S)-3-(aminomethyl)-5-methylhexanoic acid]
- inhibiting ratio of flinches (Sprague-Dawley rats; Example 4, 10 mg/kg oral, vs control group): 31%
- inhibiting ratio of flinches (Sprague-Dawley rats; Example 4, 30 mg/kg oral, vs control group): 61%
- inhibiting ratio of flinches (Sprague-Dawley rats; Example 4, 100 mg/kg oral, vs control group): 61%
- inhibiting ratio of flinches (Sprague-Dawley rats; Example 5, 30 mg/kg oral): 48%
- side-effects [2]: somnolence and dizziness
- motor function of the body ([3]; whole body administration of 100 mg/kg or more): significant decrease in motor function of the body
